From patent US11130733B2, “4-OXO-alkylated tetramic acid compound, preparation method and use thereof” (BEIJING JOEKAI BIOTECH. LLC, priority 2017, dated 2021)
Values joined by “and” are separate entries in the source; they are usually repeats but may differ in a detail not shown here. Equal values may be shown once.

Assay: Pharmacokinetic evaluation, plasma and brain concentrations
Assay type: in vivo, ICR mice
Description: Distribution of a medicament in the body is one of the important indicators to determine the dose and efficacy of the medicament. Thus, excellent candidate compounds should have good pharmacokinetic characteristics. In addition, since the compound of the present invention is intended to be used for the treatment of Alzheimer's disease, which is a disease of the central nervous system, the distribution pattern of the compound in the brain and the blood is also one of the subjects to be investigated. In this experiment, compound 50561 was administered to mice […] or by gavage, and the concentrations of the compound in blood and brain were measured at specific time points to determine the pharmacokinetic parameters.
Forty-eight male ICR mice purchased from Shanghai Sippr-BK Lab. Animal Co. Ltd were used in this experiment. The oral group was fasted for 10-14 hours before administration, and feeding was restored 4 hours after administration. Samples were collected from the intravenous administration group 0.083 h, 0.25 h, 0.5 h, 1 h, 2 h, 4 h, 8 h, and 24 h after administration, respectively: while for the oral administration group, about 0.5 mL of blood was collected from the heart 0.25 h, 0.5 h, 1 h, 2 h, 4 h, 6 h, 8 h, and 24 h after administration, respectively. Heparin sodium was used for anticoagulation. Blood samples were collected and placed on ice, and plasma was separated by centrifugation (centrifugation conditions: 8000 rpm, 6 minutes, 4C). The collected plasma was stored at −80° C. before analysis. After collecting plasma samples, brain tissues were collected, washed with normal saline, water-absorbed by filter paper, weighed immediately, and then placed in labeled tubes (one tube for one brain tissue). The samples to be tested were temporarily placed on ice before being stored in a −80° C. refrigerator.
The analysis methods of biological samples and the analysis of all samples were done by Medicilon Pharmaceutical Technology (Shanghai) Co., Ltd. The intraday accuracy evaluation of the quality control samples was carried out while analyzing the samples, and the accuracy of over 66.7% of the quality control samples was required to be between 80-120%.
When calculating the pharmacokinetic parameters, the BLQ before Cmax (including “No peak”) was calculated as 0; BLQ occurring after Cmax (including “No peak”) was not involved in the calculation. WinNonlin Professional V 5.2 (Pharsight, USA) was adopted to calculate the following pharmacokinetic parameters: AUC(0-t), AUC(0-∞), T1/2, MRT(0-∞), Cmax, and Tmax. The tissue/plasma ratio was to be calculated by the following formula based on the blood concentration data at different time points: Tissue/plasma ratio (mL/g)=tissue blood concentration/plasma blood concentration.

In the case of `O=C1C=C(OCc2ccc(F)cc2)[C@H](Cc2ccccc2)N1` [Compound 50561], the “Brain/plasma ratio, Mean” value (IV 1 mg/kg, 0.083 hr) is reported as 2.499 mL/G, the “Blood concentration, individual mice” value (IV 1 mg/kg, 0.083 hr, 1 mg/kg) is reported as 327.86 ng/mL and 145.16 ng/mL and 434.45 ng/mL and the “Brain tissue concentration, individual mice” value (“Brain tissue concentration” below) (IV 1 mg/kg, 0.083 hr, 1 mg/kg) is reported as 853.63 ng/G and 383.96 ng/G. For the same compound, the “Brain/plasma ratio, individual mice” value (IV 1 mg/kg, 0.083 hr, 1 mg/kg) was 2.604 mL/G and 2.645 mL/G and 2.249 mL/G, the “Brain/plasma ratio, Mean” value (IV 1 mg/kg, 0.25 hr) was 2.342 mL/G and the “Blood concentration, individual mice” value (IV 1 mg/kg, 0.25 hr, 1 mg/kg) was 180.29 ng/mL and 215.73 ng/mL. The “Brain tissue concentration” value (IV 1 mg/kg, 0.25 hr, 1 mg/kg) was 435.34 ng/G and 465.70 ng/G, the “Brain/plasma ratio, individual mice” value (IV 1 mg/kg, 0.25 hr, 1 mg/kg) was 2.451 mL/G and 2.415 mL/G and 2.159 mL/G and the “Brain/plasma ratio, Mean” value (IV 1 mg/kg, 0.5 hr) was 2.488 mL/G. For the same compound, the “Blood concentration, individual mice” value (IV 1 mg/kg, 0.5 hr, 1 mg/kg) was 98.13 ng/mL and 89.73 ng/mL, the “Brain tissue concentration” value (IV 1 mg/kg, 0.5 hr, 1 mg/kg) was 251.60 ng/G and 211.84 ng/G and the “Brain/plasma ratio, individual mice” value (IV 1 mg/kg, 0.5 hr, 1 mg/kg) was 2.540 mL/G and 2.564 mL/G and 2.361 mL/G. The “Brain/plasma ratio, Mean” value (IV 1 mg/kg, 1 hr) was 3.007 mL/G, the “Blood concentration, individual mice” value (IV 1 mg/kg, 1 hr, 1 mg/kg) was 18.27 ng/mL and 8.99 ng/mL and 18.70 ng/mL and the “Brain tissue concentration” value (IV 1 mg/kg, 1 hr, 1 mg/kg) was 35.43 ng/G and 51.45 ng/G. For the same compound, the “Brain/plasma ratio, individual mice” value (IV 1 mg/kg, 1 hr, 1 mg/kg) was 2.330 mL/G and 3.941 mL/G and 2.751 mL/G, the “Blood concentration, individual mice” value (IV 1 mg/kg, 2 hr) was “BLQ” and the “Brain tissue concentration” value (IV 1 mg/kg, 2 hr) was “BLQ”. The “Blood concentration, individual mice” value (IV 1 mg/kg, 4 hr) was “BLQ”, the “Brain tissue concentration” value (IV 1 mg/kg, 4 hr) was “BLQ” and the “Blood concentration, individual mice” value (IV 1 mg/kg, 8 hr) was “BLQ”. For the same compound, the “Brain tissue concentration” value (IV 1 mg/kg, 8 hr) was “BLQ”, the “Blood concentration, individual mice” value (IV 1 mg/kg, 24 hr) was “BLQ” and the “Brain tissue concentration” value (IV 1 mg/kg, 24 hr) was “BLQ”. The “Brain/plasma ratio, Mean” value (PO 10 mg/kg, 0.25 hr) was 1.877 mL/G, the “Blood concentration, individual mice” value (PO 10 mg/kg, 0.25 hr, 10 mg/kg) was 655.31 ng/mL and 548.11 ng/mL and the “Brain tissue concentration” value (PO 10 mg/kg, 0.25 hr, 10 mg/kg) was 1042.09 ng/G and 1147.13 ng/G. For the same compound, the “Brain/plasma ratio, individual mice” value (PO 10 mg/kg, 0.25 hr, 10 mg/kg) was 1.948 mL/G and 1.590 mL/G and 2.093 mL/G, the “Brain/plasma ratio, Mean” value (PO 10 mg/kg, 0.5 hr) was 2.147 mL/G and the “Blood concentration, individual mice” value (PO 10 mg/kg, 0.5 hr, 10 mg/kg) was 631.98 ng/mL and 529.57 ng/mL. The “Brain tissue concentration” value (PO 10 mg/kg, 0.5 hr, 10 mg/kg) was 2484.73 ng/G and 1280.85 ng/G and 1048.58 ng/G, the “Brain/plasma ratio, individual mice” value (PO 10 mg/kg, 0.5 hr, 10 mg/kg) was 2.435 mL/G and 2.027 mL/G and 1.980 mL/G and the “Brain/plasma ratio, Mean” value (PO 10 mg/kg, 1 hr) was 2.265 mL/G. For the same compound, the “Blood concentration, individual mice” value (PO 10 mg/kg, 1 hr, 10 mg/kg) was 599.81 ng/mL and 532.80 ng/mL, the “Brain tissue concentration” value (PO 10 mg/kg, 1 hr, 10 mg/kg) was 1290.84 ng/G and 1149.69 ng/G and the “Brain/plasma ratio, individual mice” value (PO 10 mg/kg, 1 hr, 10 mg/kg) was 2.485 mL/G and 2.152 mL/G and 2.158 mL/G. For the same compound, the “Brain/plasma ratio, Mean” value (PO 10 mg/kg, 2 hr) was 2.329 mL/G, the “Blood concentration, individual mice” value (PO 10 mg/kg, 2 hr, 10 mg/kg) was 128.34 ng/mL and 83.99 ng/mL and 219.54 ng/mL and the “Brain tissue concentration” value (PO 10 mg/kg, 2 hr, 10 mg/kg) was 277.53 ng/G and 206.08 ng/G and 520.70 ng/G. For the same compound, the “Brain/plasma ratio, individual mice” value (PO 10 mg/kg, 2 hr, 10 mg/kg) was 2.163 mL/G and 2.454 mL/G and 2.372 mL/G, the “Brain/plasma ratio, Mean” value (PO 10 mg/kg, 4 hr) was 2.052 mL/G and the “Blood concentration, individual mice” value (PO 10 mg/kg, 4 hr, 10 mg/kg) was 27.74 ng/mL and 18.40 ng/mL and 10.71 ng/mL. The “Brain tissue concentration” value (PO 10 mg/kg, 4 hr, 10 mg/kg) was 65.84 ng/G and 44.67 ng/G and 14.52 ng/G and the “Brain/plasma ratio, individual mice” value (PO 10 mg/kg, 4 hr, 10 mg/kg) was 2.373 mL/G and 2.428 mL/G and 1.355 mL/G.
